Measured values: publication PMC5664514 (Proceedings of the National Academy of Sciences of the …, 2017)

Experiments:
aged APP/PS1 mice = settings: 50 mg/kg i.p.; cited from earlier work
HEK/APPsw cells [1] = experiment: CellTiter-Glo luminescent cell viability assay; type: cell-based; settings: 10 μM, 48 h
APP-PS1-21 AD mice = settings: 2 mg/d orally, 10-mo-old mice; cited from earlier work
BDNF [2] = settings: cited from earlier work
Tg2576 AD mice [3] = settings: 25 mg/kg and 50 mg/kg; cited from earlier work
ADAM10 = settings: via HDAC2/3 mechanism involving USF-1; cited from earlier work
HEK/APPsw cells [4] = experiment: Western blot of APP metabolites, ADAM10, BACE1, BDNF in HEK/APPsw cells; type: cell-based, human; settings: 10 μM, vs DMSO
Tg2576 AD mice [5] = settings: 200 mg/kg; cited from earlier work
BDNF [6] = settings: 0.8–5 mM; cited from earlier work

Compound: O=C(CCCCCCC(=O)Nc1ccccc1)NO [SAHA, suberoylanilide hydroxamic acid]
- cognitive behavior (aged APP/PS1 mice): improvement of cognitive behavior
- cell viability (HEK/APPsw cells [1]): significantly reduce cell viability
- Aβ plaques (APP-PS1-21 AD mice): no significant differences
- H4K12 acetylation (APP-PS1-21 AD mice): increased H4K12 acetylation
- spatial memory (APP-PS1-21 AD mice): partial improvement of spatial memory
- BDNF gene expression (BDNF [2]): increase BDNF gene expression
- fear conditioning behavior (Tg2576 AD mice [3]): not behaviorally
- synaptic plasticity (long-term potentiation) (Tg2576 AD mice [3]): positive effects on synaptic plasticity

Compound: CCC(=O)CCCCC[C@@H]1NC(=O)[C@H]2CCCCN2C(=O)[C@H]([C@@H](C)CC)NC(=O)[C@H](Cc2cn(OC)c3ccccc23)NC1=O [apicidin]
- ADAM10 expression (ADAM10): up-regulating the expression of ADAM10

Compound: C=C(C)[C@@H](CC=C(C)C)C[C@@]12C[C@@H](CC=C(C)C)C(C)(C)[C@@](CC=C(C)C)(C(=O)C(C(=O)c3ccc(O)c(O)c3)=C1O)C2=O [garcinol]
- BACE1 protein level, change (Western blot) (HEK/APPsw cells [4]): 54.3%
- mature APP, change (Western blot) (HEK/APPsw cells [4]): 37.9%
- sAPPα, change (Western blot) (HEK/APPsw cells [4]): −33.6%

Compound: O=C(/C=C/C#Cc1cccc(NS(=O)(=O)c2ccccc2)c1)NO [oxamflatin]
- cell viability (HEK/APPsw cells [1]): significantly reduce cell viability

Compound: O=C([O-])CCCc1ccccc1.[Na+] [sodium 4-phenylbutyrate]
- memory (Tg2576 AD mice [5]): positive effects on memory

Compound: CC(O)CC(=O)O (stereo not drawn) [β-hydroxybutyrate]
- BDNF expression (BDNF [6]): increase BDNF expression
